Here are results for 13 compounds from patent US20230286958A1, “PLASMA KALLIKREIN INHIBITORS” (Merck Sharp & Dohme LLC, priority 2020, published 2023).

Structures are written as SMILES.

In one experiment the target is human Factor XIa (Homo sapiens (Human), UniProt P03951). Briefly: Factor XIa Assay (fluorogenic substrate GPR-AFC). Format: biochemical. The following applies: Factor XIa (FXIa).
The target of another experiment is Human plasma kallikrein (Homo sapiens (Human), UniProt P03952). Briefly: Kallikrein Assay (fluorogenic substrate Acetyl-K-P-R-AFC). The following applies: Plasma Kallikrein (PKal). It counts as biochemical. The method, boiled down: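 Ki is derived from IC50 with the Cheng-Prusoff equation, and IC50 from the inflection point of a four-parameter logistic curve. The rate of AFC release is read with 0.5 nM purified enzyme and […] substrate at room temperature or 37 °C.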
Human plasma kallikrein, sequence (P03952 391-638): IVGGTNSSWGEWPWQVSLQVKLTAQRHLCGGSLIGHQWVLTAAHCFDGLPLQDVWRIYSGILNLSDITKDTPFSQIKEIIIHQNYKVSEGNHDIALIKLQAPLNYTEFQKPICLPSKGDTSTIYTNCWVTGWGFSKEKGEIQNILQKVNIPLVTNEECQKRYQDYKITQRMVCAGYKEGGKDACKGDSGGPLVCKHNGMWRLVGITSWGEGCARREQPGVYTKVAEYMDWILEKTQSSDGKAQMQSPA
Human plasma kallikrein, sequence (P03952 20-390 partner): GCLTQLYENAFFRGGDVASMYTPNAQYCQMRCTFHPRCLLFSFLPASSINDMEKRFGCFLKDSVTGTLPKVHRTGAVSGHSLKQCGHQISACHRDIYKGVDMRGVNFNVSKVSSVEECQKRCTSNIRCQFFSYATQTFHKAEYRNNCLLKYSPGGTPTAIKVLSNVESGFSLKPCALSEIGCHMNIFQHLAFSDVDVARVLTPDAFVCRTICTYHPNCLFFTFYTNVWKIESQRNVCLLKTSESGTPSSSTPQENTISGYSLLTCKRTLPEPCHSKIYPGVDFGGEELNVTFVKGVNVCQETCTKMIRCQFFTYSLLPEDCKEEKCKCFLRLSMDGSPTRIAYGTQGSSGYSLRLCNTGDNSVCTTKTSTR

human Factor XIa, sequence (P03951 388-625 limits assumed): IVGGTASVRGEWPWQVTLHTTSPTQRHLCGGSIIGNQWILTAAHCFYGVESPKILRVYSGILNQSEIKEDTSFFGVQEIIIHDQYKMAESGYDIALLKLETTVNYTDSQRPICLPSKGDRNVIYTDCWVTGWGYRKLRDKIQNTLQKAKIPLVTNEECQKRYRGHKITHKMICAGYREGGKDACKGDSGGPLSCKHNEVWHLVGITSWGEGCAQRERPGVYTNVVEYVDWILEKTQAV
human Factor XIa, sequence (P03951 19-387 partner limits assumed): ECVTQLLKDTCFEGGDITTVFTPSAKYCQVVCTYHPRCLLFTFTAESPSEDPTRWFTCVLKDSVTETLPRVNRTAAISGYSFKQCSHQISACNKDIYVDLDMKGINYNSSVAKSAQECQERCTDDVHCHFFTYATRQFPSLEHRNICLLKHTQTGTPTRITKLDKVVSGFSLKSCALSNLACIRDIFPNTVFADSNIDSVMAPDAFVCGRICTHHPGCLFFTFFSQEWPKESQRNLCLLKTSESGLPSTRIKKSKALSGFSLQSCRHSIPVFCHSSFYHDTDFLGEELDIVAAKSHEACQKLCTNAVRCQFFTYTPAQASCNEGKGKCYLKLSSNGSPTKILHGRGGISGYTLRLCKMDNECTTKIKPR

On to `CC(c1ccc(N2C[C@H]3C[C@H]3C2=O)cc1)n1cc(NC(=O)c2cncc(-c3c(C(F)F)ccc(Cl)c3F)n2)cn1` (mixture of isomers) [Example 69, 6-(3-Chloro-6-(difluoromethyl)-2-fluorophenyl)-N-(1-((S and R)-1-(4-((1R,5S)-2-oxo-3-azabicyclo[3.1.0]hexan-3-yl)phenyl)ethyl)-1H-pyrazol-4-yl)pyrazine-2-carboxamide], for which the IC50 on human Factor XIa was more than 10000 nM; at Human plasma kallikrein, 10 nM.

With `[2H]C1([2H])C2CC2C(=O)N1c1ncc([C@H](C)n2cc(NC(=O)c3nc(-c4c(C(F)F)ccc(Cl)c4F)cnc3C)cn2)c(C)n1` (single isomer, unassigned) [Example 179, 6-(3-Chloro-6-(difluoromethyl)-2-fluorophenyl)-3-methyl-N-(1-((S)-1-(4-methyl-2-((1S,5R or 1R,5S)-2-oxo-3-azabicyclo[3.1.0]hexan-3-yl-4,4-d2)pyrimidin-5-yl)ethyl)-1H-pyrazol-4-yl)pyrazine-2-carboxamide], the IC50 came out at 1820 nM at human Factor XIa and 0.7 nM against Human plasma kallikrein.

As to `Cc1ncc(-c2c(C(F)F)ccc(Cl)c2F)nc1C(=O)Nc1cnn(C(C)c2cnc(N3C[C@H]4C[C@H]4C3=O)c(NC(=O)OC(C)(C)C)c2)c1` (mixture of isomers) [Example 96, tert-Butyl (5-((S and R)-1-(4-(6-(3-chloro-6-(difluoromethyl)-2-fluorophenyl)-3-methylpyrazine-2-carboxamido)-1H-pyrazol-1-yl)ethyl)-2-((1R,5S)-2-oxo-3-azabicyclo[3.1.0]hexan-3-yl)pyridin-3-yl)carbamate], the IC50 at human Factor XIa was determined as 3950 nM; against Human plasma kallikrein, 10.8 nM.

As to `O=C(Nc1cnn(C(CO)c2cnc(N3CC4CC4C3=O)nc2)c1)c1cncc(-c2c(C(F)F)ccc(Cl)c2F)n1` (single isomer, unassigned) [Example 161, 6-(3-chloro-6-(difluoromethyl)-2-fluorophenyl)-N-(1-((S or R)-2-hydroxy-1-(2-((1S,5R or 1R,5S)-2-oxo-3-azabicyclo[3.1.0]hexan-3-yl)pyrimidin-5-yl)ethyl)-1H-pyrazol-4-yl)pyrazine-2-carboxamide], the IC50 on human Factor XIa was more than 10000 nM; against Human plasma kallikrein, 26.7 nM.

In the case of `Cc1c(C(C)n2cc(NC(=O)c3cncc(-c4c(C(F)F)ccc(Cl)c4F)n3)cn2)cnc(N2C[C@H]3C[C@H]3C2=O)c1C` (single isomer, unassigned) [Example 153, 6-(3-Chloro-6-(difluoromethyl)-2-fluorophenyl)-N-(1-((S or R)-1-(4,5-dimethyl-6-((1R,5S)-2-oxo-3-azabicyclo[3.1.0]hexan-3-yl)pyridin-3-yl)ethyl)-1H-pyrazol-4-yl)pyrazine-2-carboxamide], the figures for the IC50 against human Factor XIa and at Human plasma kallikrein were 2170 nM and 2 nM, respectively.

Turning to `Cc1nc(N2C[C@H]3C[C@H]3C2=O)ncc1C1(n2cc(NC(=O)c3nc(-c4c(C(F)F)ccc(Cl)c4F)cnc3C)cn2)CCC1` [Example 188, 6-(3-Chloro-6-(difluoromethyl)-2-fluorophenyl)-3-methyl-N-(1-(1-(4-methyl-2-((1R,5S)-2-oxo-3-azabicyclo[3.1.0]hexan-3-yl)pyrimidin-5-yl)cyclobutyl)-1H-pyrazol-4-yl)pyrazine-2-carboxamide], the results for the IC50 on human Factor XIa and on Human plasma kallikrein were 3110 nM and 6.5 nM, respectively.

Turning to `Cc1cc(C(C)n2cc(NC(=O)c3nc(-c4c(C(F)F)ccc(Cl)c4F)cnc3C(C)O)cn2)cnc1N1C[C@H]2C[C@H]2C1=O` (single isomer, unassigned) [Example 211, 6-(3-Chloro-6-(difluoromethyl)-2-fluorophenyl)-3-((R or S)-1-hydroxyethyl)-N-(1-((S or R)-1-(5-methyl-6-((1R,5S)-2-oxo-3-azabicyclo[3.1.0]hexan-3-yl)pyridin-3-yl)ethyl)-1H-pyrazol-4-yl)pyrazine-2-carboxamide], the IC50 was found to be 50 nM at human Factor XIa and 0.6 nM at Human plasma kallikrein.

`Cc1ncc(-c2c(C(F)F)ccc(Cl)c2F)nc1C(=O)Nc1cnn(C(C)c2ccc(N3CC4CC4C3=O)nc2)c1` (single isomer, unassigned) [Example 74, 6-(3-Chloro-6-(difluoromethyl)-2-fluorophenyl)-3-methyl-N-(1-((S or R)-1-(6-((1R,5S or 1S,5R)-2-oxo-3-azabicyclo[3.1.0]hexan-3-yl)pyridin-3-yl)ethyl)-1H-pyrazol-4-yl)pyrazine-2-carboxamide]: the IC50 is 7600 nM at human Factor XIa and 14.6 nM against Human plasma kallikrein.

In the case of `Cc1cc(C(C)n2cc(NC(=O)c3cc(-c4c(C(F)F)ccc(Cl)c4F)c[n+]([O-])c3)cn2)cnc1N1C[C@H]2C[C@H]2C1=O` (single isomer, unassigned) [Example 107, 5-(3-Chloro-6-(difluoromethyl)-2-fluorophenyl)-N-(1-((R or S)-1-(5-methyl-6-((1R,5S)-2-oxo-3-azabicyclo[3.1.0]hexan-3-yl)pyridin-3-yl)ethyl)-1H-pyrazol-4-yl)-1-(l1-oxidanyl)-114-pyridine-3-carboxamide], the IC50 is 260 nM against human Factor XIa and 1.5 nM on Human plasma kallikrein.

For `CC(c1cnc(N2C[C@H]3C[C@H]3C2=O)c2c1OC(F)(F)O2)n1cc(NC(=O)c2cncc(-c3c(C(F)F)ccc(Cl)c3F)n2)cn1` (single isomer, unassigned) [Example 248, 6-(3-Chloro-6-(difluoromethyl)-2-fluorophenyl)-N-(1-((R or S)-1-(2,2-difluoro-4-((1R,5S)-2-oxo-3-azabicyclo[3.1.0]hexan-3-yl)-[1,3]dioxolo[4,5-c]pyridin-7-yl)ethyl)-1H-pyrazol-4-yl)pyrazine-2-carboxamide], the IC50 against human Factor XIa was more than 10000 nM; against Human plasma kallikrein, 22.3 nM.

As to `Cc1nc(Cn2cc(NC(=O)c3cncc(-c4c(C(F)F)ccc(Cl)c4F)n3)cn2)ccc1N1C[C@H]2C[C@H]2C1=O` [Example 64, 6-(3-Chloro-6-(difluoromethyl)-2-fluorophenyl)-N-(1-((6-methyl-5-((1R,5S)-2-oxo-3-azabicyclo[3.1.0]hexan-3-yl)pyridin-2-yl)methyl)-1H-pyrazol-4-yl)pyrazine-2-carboxamide], the IC50 was more than 10000 nM against human Factor XIa and 3.4 nM at Human plasma kallikrein.

For the compound `O=C(Nc1cnn(Cc2cnc(N3C[C@H]4C[C@H]4C3=O)c(F)c2)c1)c1cncc(-c2c(C(F)F)ccc(Cl)c2F)n1` [Example 50, 6-(3-Chloro-6-(difluoromethyl)-2-fluorophenyl)-N-(1-((5-fluoro-6-((1R,5S)-2-oxo-3-azabicyclo[3.1.0]hexan-3-yl)pyridin-3-yl)methyl)-1H-pyrazol-4-yl)pyrazine-2-carboxamide], the IC50 was 2120 nM against human Factor XIa and 5.5 nM against Human plasma kallikrein.

Take `CC(c1cnc(N2C[C@H]3C[C@H]3C2=O)c2c1CCC2)n1cc(NC(=O)c2cncc(-c3c(C(F)F)ccc(Cl)c3F)n2)cn1` (single isomer, unassigned) [Example 141, 6-(3-Chloro-6-(difluoromethyl)-2-fluorophenyl)-N-(1-((S or R)-1-(1-((1R,5S)-2-oxo-3-azabicyclo[3.1.0]hexan-3-yl)-6,7-dihydro-5H-cyclopenta[c]pyridin-4-yl)ethyl)-1H-pyrazol-4-yl)pyrazine-2-carboxamide]: the IC50 on human Factor XIa was 906 nM; on Human plasma kallikrein, 1.1 nM.

The IC50 is the concentration that inhibits the measured activity by half. Read a high IC50 as weaker potency.
